The values below come from patent US20130072509A1, “PTEROSTILBENE AND STATIN COMBINATION FOR TREATMENT OF METABOLIC DISEASE, CARDIOVASCULAR DISEASE, AND INFLAMMATION” (ChromaDex Inc., priority 2011, published 2013).

The conditions of series [1]: cited from earlier work; for bioavailability: in vivo.
A further series has as its target T1, PPAR-alpha (Rattus norvegicus, UniProt P37230).
T1 construct: endogenous in cells; host or cells: H4IIEC3 rat liver cells
T1 sequence (P37230 1-468): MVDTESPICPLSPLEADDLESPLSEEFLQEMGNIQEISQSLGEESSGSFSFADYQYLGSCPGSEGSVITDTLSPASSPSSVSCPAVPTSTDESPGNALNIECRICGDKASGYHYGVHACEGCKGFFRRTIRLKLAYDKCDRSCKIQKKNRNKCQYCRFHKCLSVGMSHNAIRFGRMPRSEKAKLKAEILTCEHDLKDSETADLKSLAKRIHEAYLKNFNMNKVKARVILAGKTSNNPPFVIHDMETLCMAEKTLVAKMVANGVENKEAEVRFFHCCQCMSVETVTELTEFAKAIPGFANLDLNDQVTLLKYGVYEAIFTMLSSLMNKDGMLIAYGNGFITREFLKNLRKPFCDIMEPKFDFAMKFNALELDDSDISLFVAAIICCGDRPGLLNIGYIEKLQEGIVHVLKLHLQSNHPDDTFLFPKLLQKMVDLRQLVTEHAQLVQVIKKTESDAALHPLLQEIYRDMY
As to conditions: cited from earlier work.

For series [2] the following is noted: mice, 28-day subacute; 160 pound human equivalent doses of approximately 125 mg/day, 1.25 g/day and 12.5 g/day; cited from earlier work.
The subject of a further series is rat smooth muscle cells. As to conditions: in vitro; cited from earlier work.
A short description of series [3]: Human clinical trial in dyslipidemia patients: lipids and blood pressure. In kind it is in vivo. The text has this: The following is a general study design for human clinical trial to assess efficacy of pterostilbene, in combination with a statin, to lower cholesterol and/or lower blood pressure, among other measured endpoints including markers for oxidative stress. The study type is interventional: a randomized, double-blind, placebo controlled study. Endpoint Classification: Safety/Efficacy Study.
The purpose of this study is to evaluate whether pterostilbene alone, or a combination of pterostilbene and a statin compound, will help control cholesterol and blood pressure, as well as improve markers for oxidative stress in patients with dyslipidemia meeting inclusion criteria. The investigators will assess the safety of pterostilbene in these patients. Further, 33% of all subjects, spread randomly across all study groups, will be undergoing concurrent statin therapy but still satisfy the inclusion criteria of a previous TC≧200 mg/dL, and/or a LDL-C≧100 mg/dL.
Sixty subjects, divided into three groups: 20 per study group. Ages eligible for study: 18 to 88 years, both genders. No healthy volunteers accepted. Inclusion criteria: patients ≧18 years of age with a previous TC≧200 mg/dL, and/or a LDL-C≧100 mg/dL on either no therapy or stable therapy. Any concomitant cholesterol medication must be at a stable dose for at least 2 months prior to baseline laboratory and not listed in the exclusion criteria. Exclusion criteria: patients with significant hepatic, renal or gastrointestinal tract disease, receiving thiazolidinediones or fibric acid derivatives, current overt cardiovascular disease, women of reproductive potential not receiving birth control, and pregnant/nursing women.
Evaluation Criteria for clinical measurement: 1. Primary outcome measures: lipid laboratory markers (i.e., change in baseline TC, LDL-C, triglycerides (TG), HDL-C, non-HDL-C); 2. Secondary outcome measures: blood pressure (i.e., change in baseline systolic blood pressure and/or diastolic blood pressure); basic metabolic panel; AST (aspartate aminotransferase); ALT (alanine aminotransferase); and/or oxidative stress markers (i.e., change in baseline urine-derived markers of stress (e.g., isoprostanes: iPF2-Alpha-III/creat; iPF2-Alpha-VI/creat; 2,3 Dinor-iPF2-Alpha-III/creat)).
Subjects will be divided into three groups or arms: (1) high dose pterostilbene, 125 mg twice daily by mouth for 6 to 8 weeks; (2) low dose pterostilbene, 50 mg twice daily by mouth for 6 to 8 weeks; (3) matching placebo taken twice daily by mouth for 6 to 8 weeks; either one hour before or two hours after a meal. Further, as stated above, 33% of all subjects, spread randomly across all study groups, will be undergoing concurrent statin therapy. […]

Another series deals with T2, CYP1A1 (Homo sapiens, UniProt P04798).
T2 sequence (P04798 1-512): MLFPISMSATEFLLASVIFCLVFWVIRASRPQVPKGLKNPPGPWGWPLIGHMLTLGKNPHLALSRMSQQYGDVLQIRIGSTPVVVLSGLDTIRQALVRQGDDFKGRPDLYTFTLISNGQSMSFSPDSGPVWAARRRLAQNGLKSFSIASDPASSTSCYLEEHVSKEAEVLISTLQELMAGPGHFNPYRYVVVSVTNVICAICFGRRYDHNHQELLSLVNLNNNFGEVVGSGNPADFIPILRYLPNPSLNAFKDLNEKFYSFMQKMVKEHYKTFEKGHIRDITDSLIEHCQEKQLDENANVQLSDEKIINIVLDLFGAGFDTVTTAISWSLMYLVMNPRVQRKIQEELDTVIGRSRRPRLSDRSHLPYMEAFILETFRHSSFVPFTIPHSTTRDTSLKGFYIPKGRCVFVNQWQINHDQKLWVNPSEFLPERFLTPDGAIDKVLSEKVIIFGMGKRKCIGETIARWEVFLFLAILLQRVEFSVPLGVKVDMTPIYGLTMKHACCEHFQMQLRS
As to conditions: human recombinant; cited from earlier work.

The next series concerns the target T3, CYP1B1 (Homo sapiens, UniProt Q16678).
T3 sequence (Q16678 1-543): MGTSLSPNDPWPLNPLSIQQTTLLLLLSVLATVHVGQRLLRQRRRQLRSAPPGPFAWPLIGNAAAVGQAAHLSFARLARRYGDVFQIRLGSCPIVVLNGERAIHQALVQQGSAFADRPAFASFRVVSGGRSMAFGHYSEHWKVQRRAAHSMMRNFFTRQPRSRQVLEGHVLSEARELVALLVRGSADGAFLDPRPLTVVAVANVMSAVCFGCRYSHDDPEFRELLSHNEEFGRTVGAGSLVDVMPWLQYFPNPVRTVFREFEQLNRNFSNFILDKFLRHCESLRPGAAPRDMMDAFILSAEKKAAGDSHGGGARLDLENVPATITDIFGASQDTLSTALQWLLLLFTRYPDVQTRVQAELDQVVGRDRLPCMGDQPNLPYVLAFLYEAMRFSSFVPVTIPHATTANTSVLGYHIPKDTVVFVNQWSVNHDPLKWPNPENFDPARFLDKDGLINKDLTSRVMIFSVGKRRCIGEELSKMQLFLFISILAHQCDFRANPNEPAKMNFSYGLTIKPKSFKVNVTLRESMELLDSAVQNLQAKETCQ
To be noted: human recombinant; cited from earlier work.

A further series relates to H4IIEC3 rat liver cells. As to conditions: 100 μM; cited from earlier work.
Where [4] appears, read: 100 μM, H4IIEC3 rat liver cells.
Setting [5] is: after 8 weeks, oral twice daily, pterostilbene alone.

Where two headings read alike, the source gives them in different places.

For `COc1cc(/C=C/c2ccc(O)cc2)cc(OC)c1` [pterostilbene, 3,5-dimethoxy-4′-hydroxy-trans-stilbene], in series [1], the “half life t1/2 in blood” value is 74 to 105 min and the bioavailability entry was “orally bioavailable”. On PPAR-alpha (setting [4]), the “PPAR-alpha activation over the control” value is 8 fold and the “PPAR-alpha activation relative to 100 μM of ciprofibrate” value is ~2 fold. At PPAR-alpha (300 μM, H4IIEC3 rat liver cells), the “PPAR-alpha activation over the control” value was 14 fold. In addition, at PPAR-alpha (study of a group of similar stilbenes, in a manner similar to ciprofibrate), the “PPAR-alpha activation (in words)” value is reported as “activated PPAR-alpha”. Moreover, the “local or systemic toxicity” value in series [2] is recorded as “no local or systemic toxicity”. In addition, the “proliferation of rat smooth muscle cells” value in the series with rat smooth muscle cells is listed as “inhibit the proliferation”. Besides, in series [3] (setting [5]), the “change in LDL-C level” value is “slight increases” and the “change in TC level” value is given as “slight increases”. Besides, the “reduction in diastolic blood pressure” value in series [3] (high dose (250 mg daily), including patients receiving a statin, p<0.001) is −7.3 mmHg. Moreover, the “reduction in systolic blood pressure” value in series [3] (high dose (250 mg daily), including patients receiving a statin, p<0.01) is on record as −7.8 mmHg. On CYP1A1, the CYP1A1 inhibition result was “shown to inhibit”. In addition, the CYP1B1 inhibition entry on CYP1B1 is recorded as “shown to inhibit”.
Take `Oc1ccc(C=Cc2cc(O)cc(O)c2)cc1` [resveratrol, reference compound]: in series [1], the “half life t1/2 in blood” value was 10 to 14 min and the bioavailability entry is “poor bioavailability”. Moreover, the Toxicity to cells entry in the series on H4IIEC3 rat liver cells is on record as “toxic to cells”.
